Here are results for 20 compounds from patent US5436252A, “5-aryl-3H-1,2,4-triazol-3-ones and their use in the treatment of neurodegenerative disorders” (Merrell Dow Pharmaceuticals Inc., priority 1990, dated 1995).

Like-named read-outs stand apart in the source and are kept apart here. Where only a bound is given, the exact number is not on record here.

Data set [1] in a line: Antagonism of Quinolinic Acid Induced Seizures (clonic-tonic seizures after icv quinolinic acid). The format is in vivo, mice. Conditions: for responders at 64 mg/kg / ED50: Mus musculus; for responders at 64 mg/kg: 64 mg/Kg IP, animals protected/tested, quinolinic acid 7.7 μg icv, read-out: Mice Protected 64 mg/Kg IP.
The nature of data set [2]: Hippocampal neurodegeneration after carotid artery occlusion (CA1 damage score). In kind it is in vivo, Male mongolian gerbils. From the text: Male mongolian gerbils (Tumblebrook Farms) weighing 45 to 60 gms were used for the experiments measuring hippocampal neurodegeneration after carotid artery occlusion. The gerbils were housed in small groups and allowed ad lib access to food and water prior to surgery. Following administration of drug, the gerbils were anesthetized with halothane (3.5%) and prepared for surgery.
An incision was made in the midline region of the neck and both carotid arteries were exposed and isolated from surrounding tissue. In sham operated animals the wounds were then closed and the animals were allowed to recover. In the hypoxic group the isolated carotid arteries were occluded for 5 minutes with 7 mm Mayfield aneurysm clips. Loss of blood flow to the cortex was confirmed by observation with an opthalmoscope of the blanching of the radial arteries in the retina of the ipsilateral eye. After 5 minutes the clips were removed and the gerbils were placed in their home cages and allowed to recover. After 7 days the gerbils were sacrificed by an overdose of chloral hydrate and perfused intracardially with 10 ml of 1% […] followed by 15 ml of 10% buffered formalin. […] Damage to the CA1 region was assessed by 3 observers who were blind to the previous treatment of the gerbil. This damage was assessed according to the scale below. […]

For data set [3] the following is noted: mice; background; cited from earlier work.
For data set [4] the following is noted: gerbils; background; cited from earlier work.
For data set [5] the following is noted: administration to rodents; background; cited from earlier work.
[6] abbreviates: 0.5 h, IP, 30', read-out: ED50 IP.

Turning to `COc1ccc(-c2nn(C)c(=O)n2C)cc1OC1CCCC1`, the responders at 64 mg/kg in data set [1] was determined as 60%.
Same read-out and setting: to `Cn1nc(-c2ccccc2Cl)n(C)c1=O` [2-ClC6 H4, CH3, CH3] belongs 60%.
What is called ED50 is the dose at which the effect has come halfway, by size or by number of responders. `Cn1c(-c2ccccc2Cl)n[nH]c1=O` [2-ClC6 H4, H, CH3, 5-(2-chlorophenyl)-2,4-dihydro-4-methyl-3H-1,2,4-triazol-3-one]: the ED50 is 64.9 mg/kg in data set [1] (setting [6]) and greater than 64 mg/kg in data set [1] (IP, 2 hr, read-out: ED50 IP). Further, the responders at 64 mg/kg in data set [1] worked out at 60%.
As to `CCn1nc(-c2cccs2)n(C)c1=O` [2-Thienyl, C2 H5, CH3, 5-(2-thienyl)-2,4-dihydro-2-ethyl-4-methyl-3H-1,2,4-triazol-3-one], in data set [1] (IP, range, time not given, printed near the Mice Protected column, read-out: ED50 IP), the median effective dose (ED50) lay within 8 to 64 mg/kg.
Take `Cn1c(-c2ccc(Cl)c(Cl)c2)n[nH]c1=O` [3,4-Cl2 C6 H3, H, CH3, 5-(3,4-dichlorophenyl)-2,4-dihydro-4-methyl-3H-1,2,4-triazol-3-one]: the “Mice Protected” value in data set [1] (@ 32 mg/Kg IP, (60')) was 5/10. The ED50 in data set [1] (setting [6]) was less than 8 mg/kg; in data set [1] (PO, time not given, read-out: ED50 PO) it was greater than 16 mg/kg.
Take `COc1ccc(-c2n[nH]c(=O)n2C)cc1OC1CCCC1` [3-(cyclo-C5 H9 O)--4-CH3 OC6 H3, H, CH3]: the responders at 64 mg/kg in data set [1] is 20%.
The same measure, in the same setting: to `CCCCOc1cc(-c2nn(C)c(=O)n2C)ccc1OC` [3-(n-C4 H9 O)--4-CH3 OC6 H3, CH3, CH3] belongs 60%; to `CCCCOc1cc(-c2n[nH]c(=O)n2C)ccc1OC` [3-(n-C4 H9 O)--4-CH3 OC6 H3, H, CH3, 5-[3-(n-butoxy)-4-methoxyphenyl]-2,4-dihydro-4-methyl-3H-1,2,4-triazol-3-one], 70%.
As for `CCn1c(-c2ccc(Cl)cc2)nn(C)c1=O` [4-ClC6 H4, CH3, C2 H5, 5-(4-Chlorophenyl)-2,4-dihydro-4-ethyl-2-methyl-3H-1,2,4-triazol-3-one], in data set [2] (40 mg/kg i.p.), the reduction of damage is reported as 66%. In addition, the ED50 was 25.9 mg/kg in data set [1] (setting [6]); 29.9 mg/kg in data set [1] (0.5 h, PO, 30', read-out: ED50 PO); 17.2 mg/kg in data set [1] (1 h, IP, 60', read-out: ED50 IP); 39.2 mg/kg in data set [1] (IP, 2 hr, read-out: ED50 IP); 52.3 mg/kg in data set [1] (PO, 4 hr, read-out: ED50 PO); greater than 128 mg/kg in data set [1] (PO, 24 hr, read-out: ED50 PO).
As for `Cn1nc(-c2ccc(Cl)cc2)n(C)c1=O` [4-ClC6 H4, CH3, CH3, 5-(4-chlorophenyl)-2,4-dihydro-2,4-dimethyl-3H-1,2,4-triazol-3-one], in data set [1], the responders at 64 mg/kg is 80%.
Take `CCn1c(-c2ccc(Cl)cc2)n[nH]c1=O` [4-ClC6 H4, H, C2 H5, 5-(4-Chlorophenyl)2,4-dihydro-4-ethyl-3H-1,2,4-triazol-3-one]: in data set [1] (setting [6]), the ED50 stood at 51 mg/kg.
For the compound `Cn1c(-c2ccc(Cl)cc2)n[nH]c1=O` [4-ClC6 H4, H, CH3], the responders at 64 mg/kg in data set [1] was 60%.
On to `Cn1c(-c2ccncc2)n[nH]c1=O` [4-Pyridyl, H, CH3, 2,4-Dihydro-4-methyl-5-(4-pyridinyl)-3H-1,2,4-triazol-3-one], for which the responders at 64 mg/kg in data set [1] stood at 30%.
`CCn1nc(-c2ccccc2)n(C)c1=O` [C6 H5, C2 H5, CH3]: in data set [1], the responders at 64 mg/kg was 50%.
Turning to `Cn1nc(-c2ccccc2)n(C)c1=O` [C6 H5, CH3, CH3], the responders at 64 mg/kg in data set [1] came out at 50%.
Turning to `Cn1c(-c2ccccc2)n[nH]c1=O` [C6 H5, H, CH3], the responders at 64 mg/kg in data set [1] is 50%.
As for `C[C@]12N[C@H](Cc3ccccc31)c1ccccc12` [MK-801, (S)-10,11-dihydro-5-methyl-5H-dibenzo(a,d)cyclohepten-5,10-imine], in data set [2] (5 mg/kg, 30 minutes prior to ligation), the “reduction of apparent damage” value came to 28%. Also, in data set [3], the “antagonism of quinolinic acid seizures (in words)” value is given as “antagonize the seizures induced in mice by quinolinic acid”. Also, the “antagonism of hippocampal neurodegeneration (in words)” value in data set [4] is on record as “antagonize hippocampal neurodegeneration after carotid artery occlusion in gerbils”.
On to `C=C(C)[C@H]1CN[C@H](C(=O)O)[C@H]1CC(=O)O` [kainic acid], for which the “neuronal degeneration (in words)” value in data set [5] is “shown to cause neuronal degeneration”.
`O=C(O)c1cccnc1C(=O)O` [quinolinic acid, reference compound]: in data set [5], the “neuronal degeneration (in words)” value was “shown to cause neuronal degeneration”. Also, the “clonic-tonic seizures caused in otherwise untreated mice” value in data set [1] (7.7 μg in 5 μl saline icv) is listed as 90-100%.
Consider `N[C@@H](Cn1oc(=O)[nH]c1=O)C(=O)O` [quisqualic acid], for which the “neuronal degeneration (in words)” value in data set [5] is reported as “shown to cause neuronal degeneration”.
